Legend:
Format in all cases: cell-based, Human
[1] = test system: PSA; assay: PSA level in spent media of LNCaP cells (Tandem-E PSA kit); details: 1 nM Mib, five days
Protocol: (§1) Human prostate cancer cell line, LNCaP (American Type Culture Collection (ATCC), Manassas, Va.), was grown in RPMI 1640 medium (Mediatech, Herndon, Va.) supplemented with 5% fetal bovine serum (FBS) and 5% CO2 at 37° C. until reaching approximately 50-70% confluence. The media were changed to serum-free RPMI 1640 at 24 hours prior to experiments being performed to deplete undesired steroids. […] Equivalent amounts of solvent were added to control cells.
(§2) Five days later, cell proliferation was measured by MTS assay kit (Promega, Madison, Wis.), and PSA and hK2 levels in spent media were determined by the Tandem-E PSA kit (Hybritech Inc., San Diego, Calif.) or Mayo's hK2 assay (Zhang et al., 1999, Endocrin., 140:1665-71).

[2] = test system: FKBP51; assay: FKBP51 protein level, Western blot in LNCaP cells; details: 1 nM Mib, 24 hrs
Protocol: Cells were harvested and the whole cell lysate and nuclear extract were prepared as described (Zhu et al., 1999, Endocrin., 140:5451-4). Western blotting analysis was performed according to the protocol described (Id). A mouse antibody against human FKBP51 (1:5,000 dilution) (a gift from Dr. David Toft, Mayo Clinic), the human androgen receptor (1:1000 or 1:2000 dilution) (Pharmingen, San Diego, Calif.) or human Sp1 (1:2000 dilution) (Santa Cruz, Santa Cruz, Calif.) was used as the primary antibody. Ponceau S staining was used for monitoring protein loading and transfer efficiency (Mitchell et al., 1999, Cancer Res., 59:5892-5).

[3] = test system: hK2; assay: hK2 level in spent media of LNCaP cells (Mayo's hK2 assay); details: 1 nM Mib, five days
Protocol: as §1, §2

[4] = test system: LNCaP cells; assay: LNCaP cell proliferation, MTS assay
Protocol: as §1, §2

[5] = test system: androgen receptor; assay: Immunocytochemical staining, whole cell androgen receptor in LNCaP cells; details: Mib alone versus absence of androgens
Protocol: Twenty-four hrs later, LNCaP cell slides were washed with 1×PBS, and fixed in acetone at −20° C. for 10 min. The air-dried slides were treated with EtOH/chloroform (1:1) mixture for 5 min to permeate the cell membrane and air-dried again. The slides were washed with 1×TBST and stained with a monoclonal antibody against the human androgen receptor (Pharmingen) using a DAKO kit (DAKO). The androgen receptor staining was observed using microscopy (Zeiss, Thornwood, N.Y.). The density of androgen receptor in a nucleus (or a whole cell) and the area of the nucleus or the whole cell were quantified by KS400 software (Zeiss) provided by the Mayo Molecular Core Facility. The androgen receptor protein level in a nucleus or a whole cell was calculated by multiplication of the density of androgen receptor in the nucleus or the whole cell with the area of the nucleus or the whole cell, respectively. In each sample, 20 to 25 cells were analyzed. All results were analyzed by 2-tailed Student's t-test. A p<0.05 was accepted as the level of significance.

Compound	PSA accumulation stimulated by androgens [1]	androgen-induced FKBP51 protein level [2]	hK2 accumulation stimulated by androgens [3]	androgen-stimulated cell growth ([4]; 1 nM Mib, five days, MTS)	androgen-stimulated cell growth at 75 μM ([4]; 1 nM Mib, silibin 75 μM)	cell proliferation in the absence of Mib ([4]; no Mib, five days, MTS)	androgen receptor level [5]	LNCaP cell growth in the presence of Mib ([4]; 1 nM Mib alone)
COc1cc(C2Oc3cc([C@H]4Oc5cc(O)cc(O)c5C(=O)[C@@H]4O)ccc3OC2CO)ccc1O (some centres unmarked) [silibin]	inhibited	reduced	inhibited	inhibited	fully suppressed	neither silymarin or silibin affected	–	–
C[C@@H]1CC2=CC(=O)CC[C@@H]2[C@H]2CC[C@@]3(C)[C@@H](CC[C@]3(C)O)[C@@H]21 [Mib, mibolerone, reference compound]	–	–	–	–	–	–	increased the androgen receptor level significantly	increased significantly

From patent US20030054053A1, “Methods and compositions for inhibiting the proliferation of prostate cancer cells” (priority 2001, published 2003)
